Usually EC50 stands for the concentration needed to bring the measured effect to its halfway point.

15 compounds from US10799507B2, “5-(7H-pyrrolo[2,3-d]pyrimidin-4-yl)-5-azaspiro[2.5]octane-8-carboxylic acid derivatives as novel JAK kinase inhibitors” (LEO Pharma A/S, priority 2017, dated 2020) can be followed below.

One data set concerns the target JAK1 (Homo sapiens (Human), UniProt P23458). Kind of data set: JAK kinase assay (HTRF), JAK1. The settings on record: catalytic domain, ATP at Km (7 μM). It counts as biochemical. An outline of the steps:
(§1)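 Catalytic-domain human JAK1 (GST-tagged, aa 850-1154) or His-tagged JAK2, baculovirus-expressed, phosphorylated 1 µM biotinylated TK peptide at Km ATP (JAK1 7 µM, 10 mM MgCl2, 50 nM SEB; JAK2 4 µM, 5 mM MgCl2) in pH 7.0 Hepes, 20-30 min RT. EDTA stop; overnight streptavidin-XL665/cryptate HTRF read.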
(In general: In TR-FRET formats the signal depends on donor and acceptor labels being close together.)

The target in the next data set is JAK2 (Homo sapiens (Human), UniProt O60674). The data set is described as follows: JAK kinase assay (HTRF), JAK2. It counts as biochemical. The settings on record: catalytic domain, ATP at Km (4 μM). The essentials:
as §1

The next data set has as its target JAK3 (Homo sapiens (Human), UniProt P52333). The data set is described as follows: JAK kinase assay (HTRF), JAK3. It counts as biochemical. The settings on record: catalytic domain, ATP at Km (2 μM). The essentials:
(§2)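 HTRF read-out of biotinylated TK peptide phosphorylation (1 μM) after a 20-30 min RT reaction in pH 7.0 Hepes buffer with 5 mM MgCl2 and 0.75% DMSO. JAK3 (His-tagged catalytic domain) used 2 μM ATP; TYK2 (GST-tagged, aa 871-1187) used 13 μM ATP plus 50 nM SEB, each at ATP Km.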

A further data set deals with TYK2 (Homo sapiens (Human), UniProt P29597). The data set is described as follows: JAK kinase assay (HTRF), TYK2. It counts as biochemical. The settings on record: catalytic domain, ATP at Km (13 μM). An outline of the steps: as §2
TYK2, sequence (P29597 871-1187): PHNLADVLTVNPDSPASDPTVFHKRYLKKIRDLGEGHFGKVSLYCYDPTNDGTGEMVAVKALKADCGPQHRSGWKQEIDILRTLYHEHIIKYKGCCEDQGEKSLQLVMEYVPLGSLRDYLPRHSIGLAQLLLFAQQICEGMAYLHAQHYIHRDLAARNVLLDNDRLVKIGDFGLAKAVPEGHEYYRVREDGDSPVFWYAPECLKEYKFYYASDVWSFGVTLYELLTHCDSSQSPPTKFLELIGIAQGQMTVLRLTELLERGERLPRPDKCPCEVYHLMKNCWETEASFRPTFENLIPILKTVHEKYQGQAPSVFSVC
Data set [1] is described as follows: in vitro metabolic stability in human liver microsomes. The class given is in vitro ADME. The settings on record: human, liver microsomes, 0.5 μM compound, 0.5 mg/mL microsomes, NADPH, 40 min, 37° C.; read-out: Human liver microsome Clapp (apparent intrinsic clearance). The method, then:
To assess the in vitro metabolic stability, the compounds (0.5 μM) were incubated in duplicates with human liver microsomes (0.5 mg/mL) in phosphate buffer and NADPH, in 96-well plates for 40 min (37° C.), using a liquid handling robot (Hamilton Microlab Star). Sample aliquots were taken at 0, 5, 10, 20 and 40 min, and dispensed into cold acetonitrile, in order to stop the reactions. The plates were centrifuged for 30 minutes before the samples were analyzed using liquid chromatography coupled to a time-of-flight mass spectrometer (AB Sciex API5600). The compound depletion over time was used to estimate the elimination rate constant, from which the apparent intrinsic clearance, Clapp, was calculated and the values are listed in Table 2.

JAK1, sequence (P23458 850-1154): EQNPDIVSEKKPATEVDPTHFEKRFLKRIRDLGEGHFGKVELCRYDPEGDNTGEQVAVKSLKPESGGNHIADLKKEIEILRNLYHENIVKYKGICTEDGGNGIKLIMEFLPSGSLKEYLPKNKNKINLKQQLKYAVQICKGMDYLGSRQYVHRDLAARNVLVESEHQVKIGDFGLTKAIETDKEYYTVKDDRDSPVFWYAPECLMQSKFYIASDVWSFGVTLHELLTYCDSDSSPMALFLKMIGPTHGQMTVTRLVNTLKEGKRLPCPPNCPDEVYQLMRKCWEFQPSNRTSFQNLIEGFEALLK
JAK3, sequence (P52333 822-1111): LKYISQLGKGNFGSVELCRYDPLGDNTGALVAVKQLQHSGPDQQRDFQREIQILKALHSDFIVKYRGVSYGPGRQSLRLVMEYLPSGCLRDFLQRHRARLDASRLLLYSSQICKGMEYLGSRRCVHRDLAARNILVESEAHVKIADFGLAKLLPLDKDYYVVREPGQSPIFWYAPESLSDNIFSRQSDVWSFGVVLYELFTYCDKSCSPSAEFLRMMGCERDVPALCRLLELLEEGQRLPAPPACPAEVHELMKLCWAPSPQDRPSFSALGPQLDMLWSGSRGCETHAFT
JAK2, sequence (O60674 849-1124): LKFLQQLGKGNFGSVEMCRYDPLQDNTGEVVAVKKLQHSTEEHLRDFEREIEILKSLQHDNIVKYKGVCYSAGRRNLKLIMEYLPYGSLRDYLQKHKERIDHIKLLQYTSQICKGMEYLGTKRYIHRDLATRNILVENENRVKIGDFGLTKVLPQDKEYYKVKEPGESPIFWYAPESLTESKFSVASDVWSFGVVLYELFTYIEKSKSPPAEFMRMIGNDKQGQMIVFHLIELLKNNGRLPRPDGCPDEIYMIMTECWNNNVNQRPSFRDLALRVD

For the compound `N#Cc1ccc([C@H](CO)NC(=O)[C@H]2CCN(c3ncnc4[nH]ccc34)CC23CC3)cc1` [Example 18, (8S)-N-[(1R)-1-(4-cyanophenyl)-2-hydroxy-ethyl]-5-(7H-pyrrolo[2,3-d]pyrimidin-4-yl)-5-azaspiro[2.5]octane-8-carboxamide], the concentration giving a half-maximal response (EC50) at JAK1 was 1 nM; on JAK2 it was 3.5 nM; on JAK3, 7.5 nM; on TYK2, 45.5 nM. The CLint scaled at 0.5 μM in data set [1] was determined as 44 mL/min/kg.

Turning to `O=C(N[C@@H](CO)[C@H](O)c1ccc(F)cc1)[C@H]1CCN(c2ncnc3[nH]ccc23)CC12CC2` [Example 50, (8S)-N-[(1S,2R)-2-(4-fluorophenyl)-2-hydroxy-1-(hydroxymethyl)ethyl]-5-(7H-pyrrolo[2,3-d]pyrimidin-4-yl)-5-azaspiro[2.5]octane-8-carboxamide], the EC50 on JAK1 is 3.5 nM; at JAK2 it was 7 nM; on JAK3, 22.7 nM; on TYK2, 53.2 nM. Moreover, the CLint scaled at 0.5 μM in data set [1] stood at 109 mL/min/kg.

On to `N#Cc1ccc(CNC(=O)C2CCN(c3ncnc4[nH]ccc34)CC23CC3)cc1` (stereo not drawn) [Example 26, N-[(4-cyanophenyl)methyl]-5-(7H-pyrrolo[2,3-d]pyrimidin-4-yl)-5-azaspiro[2.5]octane-8-carboxamide], for which the EC50 at JAK1 came out at 1.4 nM; at JAK2, 6.4 nM; at JAK3, 11.2 nM; on TYK2, 196 nM. In data set [1], the CLint scaled at 0.5 μM was determined as 78 mL/min/kg.

`O=C(NCC1(CO)CC(F)(F)C1)C1CCN(c2ncnc3[nH]ccc23)CC12CC2` (stereo not drawn) [Example 35, N-[[3,3-difluoro-1-(hydroxymethyl)cyclobutyl]methyl]-5-(7H-pyrrolo[2,3-d]pyrimidin-4-yl)-5-azaspiro[2.5]octane-8-carboxamide]: the EC50 at JAK1 was determined as 1.9 nM; on JAK2, 4.8 nM; on JAK3, 8.6 nM; at TYK2, 71.8 nM. In data set [1], the CLint scaled at 0.5 μM was found to be 41 mL/min/kg.

Take `O=C(N[C@H](CO)C(=O)OCC1CC1)[C@H]1CCN(c2ncnc3[nH]ccc23)CC12CC2` [Example 91, cyclopropylmethyl (2R)-3-hydroxy-2-[[(8S)-5-(7H-pyrrolo[2,3-d]pyrimidin-4-yl)-5-azaspiro[2.5]octane-8-carbonyl]amino]propanoate]: the concentration for a half-maximal effect (EC50) is 8.2 nM on JAK1, 17.7 nM at JAK2, 47.3 nM on JAK3 and 163 nM at TYK2. Also, in data set [1], the CLint scaled at 0.5 μM is 17 mL/min/kg.

In the case of `O=C(NC[C@H](O)c1ccccc1)C1CCN(c2ncnc3[nH]ccc23)CC12CC2` (stereo partly drawn) [Example 103, N-[(2R)-2-hydroxy-2-phenyl-ethyl]-5-(7H-pyrrolo[2,3-d]pyrimidin-4-yl)-5-azaspiro[2.5]octane-8-carboxamide], the half-maximal effective concentration (EC50) is 9.9 nM on JAK1, 21.4 nM at JAK2, 40.6 nM on JAK3 and 509 nM at TYK2. For the same compound, the CLint scaled at 0.5 μM in data set [1] worked out at 128 mL/min/kg.

Consider `O=C(OCC1(CO)CC1)[C@H]1CCN(c2ncnc3[nH]ccc23)CC12CC2` [Example 156, [1-(hydroxymethyl)cyclopropyl]methyl (8S)-5-(7H-pyrrolo[2,3-d]pyrimidin-4-yl)-5-azaspiro[2.5]octane-8-carboxylate], for which the EC50 at JAK1 came to 4 nM; on JAK2 it was 5.4 nM; at JAK3, 20.4 nM; at TYK2 it was 30 nM. In data set [1], the CLint scaled at 0.5 μM was 94 mL/min/kg.

In the case of `O=C(NCC(O)C1CCCCC1)[C@H]1CCN(c2ncnc3[nH]ccc23)CC12CC2` (stereo partly drawn) [Example 2, (8S)-N-(2-cyclohexyl-2-hydroxy-ethyl)-5-(7H-pyrrolo[2,3-d]pyrimidin-4-yl)-5-azaspiro[2.5]octane-8-carboxamide], the EC50 on JAK1 was 0.5 nM; at JAK2, 1.3 nM; on JAK3, 3.7 nM; on TYK2, 4.6 nM. The CLint scaled at 0.5 μM in data set [1] is greater than 200 mL/min/kg.

For the compound `N#Cc1ccc([C@H](O)CNC(=O)[C@H]2CCN(c3ncnc4[nH]ccc34)CC23CC3)cc1` [Example 8, (8S)-N-[(2S)-2-(4-cyanophenyl)-2-hydroxy-ethyl]-5-(7H-pyrrolo[2,3-d]pyrimidin-4-yl)-5-azaspiro[2.5]octane-8-carboxamide], the EC50 stood at 0.6 nM at JAK1, 2.7 nM at JAK2, 4.9 nM at JAK3 and 17.7 nM at TYK2. Further, the CLint scaled at 0.5 μM in data set [1] is greater than 200 mL/min/kg.

As to `O=C(OCC1CC(F)(F)C1)[C@@H]1CCN(c2ncnc3[nH]ccc23)CC12CC2` [Example 155, (3,3-difluorocyclobutyl)methyl (8R)-5-(7H-pyrrolo[2,3-d]pyrimidin-4-yl)-5-azaspiro[2.5]octane-8-carboxylate], the EC50 on JAK1 worked out at 30 nM; on JAK2, 58 nM; on JAK3, 144 nM; on TYK2 it was 1280 nM. Also, the CLint scaled at 0.5 μM in data set [1] was greater than 200 mL/min/kg.

`O=C(NC[C@@H](O)c1ccc(F)cc1)[C@H]1CCN(c2ncnc3[nH]ccc23)CC12CC2` [Example 7, (8S)-N-[(2S)-2-(4-fluorophenyl)-2-hydroxy-ethyl]-5-(7H-pyrrolo[2,3-d]pyrimidin-4-yl)-5-azaspiro[2.5]octane-8-carboxamide]: the EC50 came to 0.6 nM on JAK1, 1.7 nM at JAK2, 8.8 nM at JAK3 and 4.9 nM at TYK2. The CLint scaled at 0.5 μM in data set [1] is greater than 200 mL/min/kg.

Take `O=C(N[C@@H](CO)C1CCCCC1)[C@H]1CCN(c2ncnc3[nH]ccc23)CC12CC2` [Example 24, (8S)-N-[(1R)-1-cyclohexyl-2-hydroxy-ethyl]-5-(7H-pyrrolo[2,3-d]pyrimidin-4-yl)-5-azaspiro[2.5]octane-8-carboxamide]: the EC50 at JAK1 came out at 1.3 nM; on JAK2 it was 2.7 nM; on JAK3 it was 10.9 nM; on TYK2, 19.9 nM. The CLint scaled at 0.5 μM in data set [1] amounted to 159 mL/min/kg.

Take `N#Cc1ccc(CNC(=O)[C@H]2CCN(c3ncnc4[nH]ccc34)CC23CC3)c(F)c1` [Example 31, (8S)-N-[(4-cyano-2-fluoro-phenyl)methyl]-5-(7H-pyrrolo[2,3-d]pyrimidin-4-yl)-5-azaspiro[2.5]octane-8-carboxamide]: the EC50 on JAK1 worked out at 1.4 nM; on JAK2, 6.4 nM; on JAK3, 15.6 nM; on TYK2, 63.7 nM. The CLint scaled at 0.5 μM in data set [1] came to 166 mL/min/kg.

With `O=C(NCC(O)c1ccc(F)cn1)[C@H]1CCN(c2ncnc3[nH]ccc23)CC12CC2` (stereo partly drawn) [Example 38, (8S)-N-[2-(5-fluoro-2-pyridyl)-2-hydroxy-ethyl]-5-(7H-pyrrolo[2,3-d]pyrimidin-4-yl)-5-azaspiro[2.5]octane-8-carboxamide], the EC50 on JAK1 stood at 2.2 nM; on JAK2, 9 nM; at JAK3, 33.6 nM; at TYK2 it was 32.1 nM. In data set [1], the CLint scaled at 0.5 μM was 73 mL/min/kg.

Consider `O=C(NC[C@H](O)C1CCCC1)[C@H]1CCN(c2ncnc3[nH]ccc23)CC12CC2` [Example 11, (8S)-N-[(2R)-2-cyclopentyl-2-hydroxy-ethyl]-5-(7H-pyrrolo[2,3-d]pyrimidin-4-yl)-5-azaspiro[2.5]octane-8-carboxamide], for which the EC50 came out at 0.8 nM on JAK1, 2.1 nM at JAK2, 6.7 nM on JAK3 and 18.2 nM at TYK2. Moreover, the CLint scaled at 0.5 μM in data set [1] came out at 148 mL/min/kg.
